BindingDB's records for doi:10.7270/Q2TX3CTT (Broad Institute, 2010)
Counter-ions that a name gives are not always drawn.

Molecular target: Glycogen synthase kinase-3 beta (Homo sapiens, UniProt P49841)
Assay: concentration-response blocking of human GSK3B – biochemical, luminescence, cell-free homogeneous, retest, dose response (AID 434954)

Chain of Glycogen synthase kinase-3 beta (P49841 whole entry): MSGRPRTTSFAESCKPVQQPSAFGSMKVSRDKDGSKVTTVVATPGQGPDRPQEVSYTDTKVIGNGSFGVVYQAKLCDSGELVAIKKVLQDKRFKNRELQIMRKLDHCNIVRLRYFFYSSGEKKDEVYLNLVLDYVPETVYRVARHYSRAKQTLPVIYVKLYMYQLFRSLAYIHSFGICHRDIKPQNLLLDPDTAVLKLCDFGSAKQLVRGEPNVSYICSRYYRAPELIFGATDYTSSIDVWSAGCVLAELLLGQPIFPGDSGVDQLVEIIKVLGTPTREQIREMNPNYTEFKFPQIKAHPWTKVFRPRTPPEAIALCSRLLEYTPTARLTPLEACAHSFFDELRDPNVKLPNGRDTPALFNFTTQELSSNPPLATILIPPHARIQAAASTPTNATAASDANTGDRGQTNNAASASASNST

Structure (SMILES)	EC50 [µM]
CCN(CC)S(=O)(=O)c1cccc(NC(=O)COc2ccc(Cl)cc2Br)c1 [2-(2-bromanyl-4-chloranyl-phenoxy)-N-[3-(diethylsulfamoyl)phenyl]ethanamide]	> 300
Fc1ccc(CSc2nnc(-c3cccnc3)o2)cc1 [2-[(4-fluorophenyl)methylthio]-5-(3-pyridinyl)-1,3,4-oxadiazole]	> 300
NC(=O)c1ncn([C@@H]2O[C@H](CO)[C@@H](O)[C@H]2O)n1 [Tribavirin]	> 300
CCN1CCN(c2cc(C)c3cc(NC(=O)c4cccc(OC)c4)ccc3n2)CC1 [N-[2-(4-ethylpiperazin-1-yl)-4-methyl-quinolin-6-yl]-3-methoxy-benzamide]	> 300
Cn1c(SCc2ccccc2C#N)nnc1-c1ccncc1 [2-(4-Methyl-5-pyridin-4-yl-4H-[1,2,4]triazol-3-ylsulfanylmethyl)-benzonitrile]	> 300
CCc1cc(C(=O)c2ccc(OC)cc2)c(NC(=O)CN2CCN(C)CC2)s1 [N-[5-ethyl-3-(4-methoxyphenyl)carbonyl-thiophen-2-yl]-2-(4-methylpiperazin-1-yl)ethanamide]	> 300
Cc1nc2sc(C(c3cccc(F)c3)N3CC(C)OC(C)C3)c(O)n2n1 (centres undefined)	> 300
CC(CC(=O)Nc1cc(C)ccn1)=NNC(=O)C(=O)NC(C)C [N'-[[4-[(4-methylpyridin-2-yl)amino]-4-oxidanylidene-butan-2-ylidene]amino]-N-propan-2-yl-ethanediamide]	> 300
NS(=O)(=O)c1ccc(NC(=O)CN2C(=O)CCC2=O)cc1 [2-[2,5-bis(oxidanylidene)pyrrolidin-1-yl]-N-(4-sulfamoylphenyl)ethanamide]	> 300
C=CCNc1nc(N)c([N+](=O)[O-])c(NCCO)n1 [2-(2-Allylamino-6-amino-5-nitro-pyrimidin-4-ylamino)-ethanol]	46.5
Cc1coc2cc3oc(=O)c(CCC(=O)NCCCN4CCCC4=O)c(C)c3cc12 [3-(3,5-dimethyl-7-oxo-6-furo[3,2-g][1]benzopyranyl)-N-[3-(2-oxo-1-pyrrolidinyl)propyl]propanamide]	> 300
O=C(NN=CC1=CC(=O)C(=O)CC1)NN=CC1=CC(=O)C(=O)CC1 [1,3-bis[[(Z)-(3-hydroxy-4-oxocyclohexa-2,5-dien-1-ylidene)methyl]amino]urea]	13.3
CCn1c(COc2ccccc2)nnc1SCC(=O)NC1CC1	> 300
CC(Sc1ccc2nnc(-c3ccc(F)cc3)n2n1)C(=O)O (centres undefined) [2-[[3-(4-fluorophenyl)-[1,2,4]triazolo[4,3-b]pyridazin-6-yl]sulfanyl]propanoic acid]	21.4
Cc1ccc(-c2nnc3ccc(SC(C)C(=O)O)nn23)cc1 (centres undefined) [2-[[3-(4-methylphenyl)-[1,2,4]triazolo[4,3-b]pyridazin-6-yl]sulfanyl]propanoic acid]	34.2
O=C(Nc1ccc(O)c2c(=O)cc(-c3ccccc3Cl)oc12)c1cccc(Cl)c1	87.4
COc1ccccc1/C=C/C=C1\Oc2c(ccc(O)c2CN(C)C)C1=O [(2Z)-7-[(dimethylamino)methyl]-6-hydroxy-2-[(E)-3-(2-methoxyphenyl)prop-2-enylidene]-1-benzofuran-3-one]	33.8
Clc1cccc(Nc2nc(-c3ccncc3)nc3ccccc23)c1	56.8
COc1cccc(C(=O)NCC(c2ccco2)N2CCc3ccccc3C2)c1 (centres undefined) [N-[2-(3,4-dihydro-1H-isoquinolin-2-yl)-2-(furan-2-yl)ethyl]-3-methoxy-benzamide]	> 300
O=c1cc(-c2ccccc2)c2c(O)cc(O)cc2o1	7.82
CCCC1=Nc2ncnn2C(c2cccs2)C1C(=O)OCC (centres undefined) [5-propyl-7-thiophen-2-yl-1,7-dihydro-[1,2,4]triazolo[1,5-a]pyrimidine-6-carboxylic acid ethyl ester]	23.2

Structure (SMILES)	EC50 [µM]
Cc1[nH]nc2c1C(c1ccc(O)cc1)C1C(=O)CC(C)(C)CC1=N2 (centres undefined)	2.06
Nc1ncnc(N(c2ccccc2)C2CCCCC2)c1[N+](=O)[O-] [N-cyclohexyl-5-nitro-N-phenyl-4,6-pyrimidinediamine]	> 300
Nc1nc(Nc2ccccc2)nc(NCc2ccccc2)c1[N+](=O)[O-]	13.3
CC1=NC(=O)NC(c2ccccc2OC(F)F)C1C(=O)OCc1ccccc1 (centres undefined)	4.4
COc1cccc(/C=C2/Sc3ccc(C(=O)NCCN4CCCC4)cc3NC2=O)c1 [(2E)-2-[(3-methoxyphenyl)methylidene]-3-oxo-N-(2-pyrrolidin-1-ylethyl)-4H-1,4-benzothiazine-6-carboxamide]	2.81
COc1ccc(-c2cn3c(C)c(C(=O)Nc4ccncc4)sc3n2)cc1 [6-(4-methoxyphenyl)-3-methyl-N-(4-pyridyl)imidazo[2,1-b]thiazole-2-carboxamide]	> 300
Cc1nnc(SCC(=O)Nc2ccc(Cl)cn2)[nH]c1=O [N-(5-chloro-2-pyridinyl)-2-[(6-methyl-5-oxo-2H-1,2,4-triazin-3-yl)thio]acetamide]	36.7
CN(C)CCc1cc2c(c3c1ccc1ccccc13)OCO2 [N,N-dimethyl-2-(5-naphtho[2,1-g][1,3]benzodioxolyl)ethanamine;hydrochloride]	25.9
CCCCCc1cc(O)c2c(C)cc(=O)oc2c1 [5-hydroxy-4-methyl-7-pentyl-1-benzopyran-2-one]	> 300
COc1ccc(C(=O)c2coc3ccc(OC(C)=O)cc23)cc1	> 300
CCOC(=O)c1c(C)oc2c(CC(=O)c3ccccc3)c(Cl)c(O)c(O)c12 [ethyl 6-chloro-4,5-dihydroxy-2-methyl-7-phenacyl-1-benzofuran-3-carboxylate]	> 300
CCN(CC)CCNc1nc(SC)nc2sc3c(c12)CCN(C)C3	> 300
CCN1CCN(c2c(C(=O)c3ccc(OC)cc3)cnc3ccccc23)CC1 [[4-(4-ethylpiperazin-1-yl)quinolin-3-yl](4-methoxyphenyl)methanone]	> 300
Cc1ccc([N+](=O)[O-])cc1/N=C1\C(=O)Nc2ccccc21	> 300
Cc1ccnc(NC(=O)c2ccccc2[N+](=O)[O-])c1 [N-(4-methylpyridin-2-yl)-2-nitro-benzamide]	> 300
O=C(c1noc2c1CCc1ccccc1-2)N1CCOCC1 [3-(morpholin-4-ylcarbonyl)-4,5-dihydronaphtho[2,1-d]isoxazole]	> 300
COc1ccc(-c2nn(CCC(=O)O)cc2/C=C/C(=O)O)cc1[N+](=O)[O-] [3-[4-[(E)-2-carboxyethenyl]-3-(4-methoxy-3-nitrophenyl)pyrazol-1-yl]propanoic acid]	> 300
c1ccc(-n2cnnc2SCc2cn3cccnc3n2)cc1 [2-(4-Phenyl-4H-[1,2,4]triazol-3-ylsulfanylmethyl)-imidazo[1,2-a]pyrimidine]	> 300
CCOc1ccc2nc(N3CCC(C(=O)N4CCN(C5CCCCC5)CC4)CC3)sc2c1 [(4-cyclohexyl-1-piperazinyl)-[1-(6-ethoxy-1,3-benzothiazol-2-yl)-4-piperidinyl]methanone]	> 300
Nc1nc(NCCCN2CCOCC2)nc(Nc2ccc(Cl)cc2)c1[N+](=O)[O-] [N'-(4-Chloro-phenyl)-N-(3-morpholin-4-yl-propyl)-5-nitro-pyrimidine-2,4,6-triamine]	1.47
c1ccc(CSc2nnc(-c3cccnc3)o2)cc1 [3-(5-Benzylsulfanyl-[1,3,4]oxadiazol-2-yl)-pyridine]	> 300

Results, then the compound that gave them:

EC50 [µM]	Structure (SMILES)
3.3	N#Cc1c(N2CCCCC2)nc(N2CCCCC2)c2c1CCN(Cc1ccccc1)C2 [SMR000036037]
> 300	C[C@H](C(O)c1ccccc1)N(C)C(=O)CN (some centres undefined) [SMR000639412]
13.6	O=[N+]([O-])c1c(-c2cn[nH]c2)n[nH]c1-c1cn[nH]c1 [SMR000289595]
> 300	O=C(Nc1ccccc1)Nc1cnccn1 [MLS001229949]
> 300	CN1CCc2c(sc3c2c(=O)n(-c2ccc(Cl)cc2)c2nncn32)C1 [SMR000042939]
> 300	N#Cc1cccc(-c2nnc(SCc3ccccc3C#N)o2)c1 [SMR000006352]
> 300	O=C(Cc1ccccc1)Nc1ccc(N2CCOCC2)cc1 [MLS000707957]
> 300	CCOC(=O)c1sc2c(c1C)C(c1cccs1)C1C(=O)CCCC1=N2 (centres undefined) [MLS000082170]
> 300	CCN1CCN(C(=O)c2ccc3c(c2)N(Cc2ccc(F)cc2)C(=O)c2ccccc2[S+]3[O-])CC1 (centres undefined) [MLS000117749]
> 300	CCOC(=O)N1CCC(NC(=O)c2cc3sccc3n2CC)CC1 [MLS000093129]
> 300	COCCn1c(SCC(=O)Nc2ncc(Cl)c(C)c2Cl)nc2ccccc21 [MLS000097567]
> 300	COc1ccc(Cl)cc1-n1c(C)ccc1C [MLS000680869]
> 300	COc1ccc(OC)c(NCc2nnc(-c3ccccc3)o2)c1 [MLS001208999]
25.4	O=C1Nc2ccccc2Nc2ccc([N+](=O)[O-])cc21 [SMR000550741]
26.3	Nc1nc(NCCN2CCOCC2)nc(NCc2ccccc2)c1[N+](=O)[O-] [SMR000434816]
> 300	CCOC(=O)CSc1ccc2nnc(-c3cccnc3)n2n1 [SMR000018940]
> 300	CN1CCc2c(sc3c2c(=O)n(-c2ccccc2)c2nncn32)C1 [SMR000045494]
> 300	Cc1ccc(NC2=CC(=O)CC(C)(C)C2)cc1F [MLS001198284]
> 300	O=[N+]([O-])c1ccccc1Oc1ccc(Cl)c2cccnc12 [MLS000721853]
> 300	CC(=O)Oc1ccc2occ(C(=O)c3cccs3)c2c1 [SMR000106284]
21.7	Nc1nc(NCCOCCO)nc(NCc2ccccc2)c1[N+](=O)[O-] [MLS001213400]
> 300	Nc1c(C(=O)c2ccccc2)sc(Nc2ccccc2)c1S(=O)(=O)c1ccccc1 [SMR000115215]
> 300	CCCc1cc(NCc2ccccn2)n2nc(C)c(-c3ccccc3)c2n1 [MLS000762884]
> 300	O=C(NCCN1C(=O)S/C(=C\c2ccc(Cl)c(Cl)c2)C1=O)C1COc2ccccc2O1 (centres undefined) [SMR000254587]
25.3	Clc1ccc2[nH]c3c(c2c1)CCc1c[nH]nc1-3 [MLS000108710]
> 300	Cc1cc(C)c(NC(=O)c2ccc(S(=O)(=O)N3CCOCC3)cc2)c(C)c1 [MLS000100511]
> 300	CCCNC(=O)c1ccc(Cl)cc1Cl [SMR000528064]
